The source of these data is article PMC11555678, “Improved Broad Spectrum Antifungal Drug Synergies with Cryptomycin, a Cdc50-Inspired Antifungal Peptide” (ACS Infectious Diseases, 2024).

In assay [1] the test system is Cn MRL862. Type of assay: cell-based, Cryptococcus neoformans. The settings on record: RPMI1640, 37 °C, 48 h. How it is done:
(§1) All microdilution assays with fungi were carried out in accordance with CLSI protocols from M27 for yeasts and M38 for filamentous fungi, respectively, unless otherwise specified.[64],[65] Briefly, 96-well plates were charged with RPMI1640 media, with operating volume in the first column, 200 μL, and half operating volume, 100 μL, in the remaining wells. Drug stock solution in DMSO was aliquoted into the first well in each row. Half of the volume in the dosed well was serially diluted 2-fold until column 11. Column 11 was used as the negative growth control, and column 12 was used as the positive growth control. ON yeast cultures in YPD were washed twice in DD-H2O, resuspended in PBS, and adjusted to 5000 cfu/mL in RPMI. The 96-well plate was inoculated with 100 μL aliquots of cell suspension per well. Plates were incubated at 37 °C for 2 days.
(§2) To assess drug synergy, the initial media charged to the plate contained the peptide at twice the final operating concentration; the remaining processing steps were identical to the MIC experiment. Upon addition of 100 μL of inoculant, the final operating concentration was achieved. Control MIC plates were prepared alongside drug synergy plates to account for the day-to-day variability in any individual MIC. FIC index is computed using eq 1. All MIC assays and drug synergy assays were completed with two technical replicates per 96-well plate and a minimum of two biological replicates per drug combination. If a difference in MIC between the two technical replicates on the plate were observed, only the higher concentration was reported as the MIC to reduce the possibility of type 1 error (false positive) [drawing 1] 1

For assay [2], the system named is C. auris B11245. Description: microbe, parasite or virus in culture. Particulars: Candidozyma auris, B11245; compound alone; RPMI1640, 37 °C, 48 h; * = paradoxical growth observed (CAS); read-out: MIC. Type of assay: cell-based, Candida auris. How it is done:
as §1

Assay [3] relates to C. auris B11245. The assay is classed as cell-based, Candida auris. The settings on record: RPMI1640, 37 °C, 48 h, CAS: paradoxical growth; for MIC of antifungal in combination with KKOO: MIC = <20% growth; for MIC of antifungal in combination with KKOO-NH2: MIC = well with <20% growth. How it is done:
as §1, §2

Assay [4] deals with A. fumigatus AF293. Description: microbe, parasite or virus in culture. Type of assay: cell-based, Aspergillus fumigatus. Particulars: Aspergillus fumigatus, AF293; compound alone; RPMI1640, 37 °C, 48 h; * = paradoxical growth observed (CAS); read-out: MIC. How it is done: as §1
Assay [5] deals with C. glabrata 2001. Put plainly: microbe, parasite or virus in culture. The assay is classed as cell-based, Candida glabrata. The settings on record: Nakaseomyces glabratus, 2001; compound alone; RPMI1640, 37 °C, 48 h; read-out: MIC. How it is done:
as §1

The subject of assay [6] is C. glabrata FKS1-S629P. Description: microbe, parasite or virus in culture. The assay is classed as cell-based, Candida glabrata. The settings on record: Nakaseomyces glabratus, FKS1S629P, 48 h. How it is done: as §1
The test system of assay [7] is C. glabrata FKS2-S663P. Put plainly: microbe, parasite or virus in culture. The settings on record: Nakaseomyces glabratus, FKS2S663P, 48 h. The assay is classed as cell-based, Candida glabrata. How it is done:
as §1

Values after ≈ are worked out from the molar mass of the structure shown. Where two headings read alike, the source gives them in different places.

`C[C@@H]1[C@H](O)[C@@H](C)/C=C/C=C/C=C/C=C/C=C/C=C/C=C/[C@H](O[C@@H]2O[C@H](C)[C@@H](O)[C@H](N)[C@@H]2O)C[C@@H]2O[C@](O)(C[C@@H](O)C[C@@H](O)[C@H](O)CC[C@@H](O)C[C@@H](O)CC(=O)O[C@H]1C)C[C@H](O)[C@H]2C(=O)O` [AMB, amphotericin B]: the “MIC of antifungal in combination with KKOO” value amounted to 0.25 µg/mL in assay [1] (+0 μg/mL KKOO (control)); 0.125 µg/mL in assay [1] (+1 μg/mL KKOO); 0.031 µg/mL in assay [1] (+2 μg/mL KKOO); 0.016 µg/mL in assay [1] (+4 μg/mL KKOO); 1 µg/mL in assay [3] (+0 μg/mL KKOO (control)); 0.5 µg/mL in assay [3] (+1 μg/mL KKOO). In addition, the entries for the “MIC of antifungal in combination with KKOO” value in assay [3] (+2 μg/mL KKOO) and in assay [3] (+4 μg/mL KKOO) were 0.5 µg/mL and 0.25 µg/mL, respectively. Moreover, the “MIC of antifungal in combination with KKOO-NH2” value amounted to 0.25 µg/mL in assay [1] (+0 μg/mL KKOO-NH2 (control)); 0.125 µg/mL in assay [1] (+1 μg/mL KKOO-NH2); 0.031 µg/mL in assay [1] (+2 μg/mL KKOO-NH2); 0.016 µg/mL in assay [1] (+4 μg/mL KKOO-NH2); 1 µg/mL in assay [3] (+0 μg/mL KKOO-NH2 (control)); 0.5 µg/mL in assay [3] (+1 μg/mL KKOO-NH2). The figures for the “MIC of antifungal in combination with KKOO-NH2” value in assay [3] (+2 μg/mL KKOO-NH2) and in assay [3] (+4 μg/mL KKOO-NH2) were 0.5 µg/mL and 0.25 µg/mL, respectively. The MIC in assay [2], in assay [4], in assay [5], in assay [6] and in assay [7] was 1 µg/mL (≈ 1.08 µM) each time.
